Test results as given in patent publication US20220273607A1, “METHODS OF USING MODIFIED […] TREAT CANCER” (NORTHWESTERN UNIVERSITY, priority 2019, published 2022).

What was measured:
Type in all cases: cell-based
HT-1080 cells = assay: CellTiter Blue cytotoxicity with and without CD36 blocker SSO, HT-1080; conditions: different compound concentrations and different concentrations of SSO, FIG. 3
Method: The compound of Example 2 (ODDA-PTX) was compared with paclitaxel (PTX) in terms of cellular uptake. The comparison was carried out in HT-1080 cell culture using sulfosuccinimidyl oleate (SSO), a chemical blocker of fatty acid translocase/CD36:
Cytotoxicity of the compounds was evaluated using the CellTiter Blue (CTB) assay (Promega, cat G8081). Treatments of fatty acid-conjugates were prepared as 1000× serial stock dilutions in DMSO, then diluted into media for 1×, 0.1% DMSO treatment solutions. […]
Expression of CD36 in HT-1080 was validated using flow cytometry and a fluorophore-conjugated CD36 antibody (CD36, eFluor 660, clone: eBioNL07 (NL07), eBioscience). […] Cells were resuspended in a final volume of 100 μL resuspension and analyzed via flow cytometry for presence of CD36. […]
HT-1080 cells were plated in 96-well plates one day before treatment, at a seeding density of 10,000 cells/well. […] Fluorescence was measured at 590 nm with excitation at 560 nm using a Perkin Elmer EnSpire plate reader. Average background fluorescence readings of the experimental wells (three wells per treatment concentration). Viability was calculated as the average background-subtracted signal in a well compared to that of a negative control (cells treated with vehicle, […] in media). […]

MCF-7 cells = assay: CellTiter Blue cytotoxicity with and without CD36 blocker SSO, MCF-7; conditions: different compound concentrations and different concentrations of SSO, FIG. 4
HepG2 cells = assay: CellTiter Blue cytotoxicity with and without CD36 blocker SSO, HepG2; conditions: different compound concentrations and different concentrations of SSO, FIG. 5

CC(=O)O[C@H]1C(=O)[C@@]2(C)[C@H]([C@H](OC(=O)c3ccccc3)[C@]3(O)C[C@H](OC(=O)[C@H](OC(=O)CCCCCCCCCCCCCCCCC(=O)O)[C@@H](NC(=O)c4ccccc4)c4ccccc4)C(C)=C1C3(C)C)[C@]1(OC(C)=O)CO[C@@H]1C[C@@H]2O [ODDA-PTX, Paclitaxel-C18 Diacid Conjugate]
change of percent viability of the cells with increasing concentration of the CD36 inhibitor (HT-1080 cells): increasing the concentration of the CD36 inhibitor correlates with increasing percent viability
change of percent viability of the cells with increasing concentration of the CD36 inhibitor (MCF-7 cells): increasing the concentration of the CD36 inhibitor correlates with increasing percent viability
change of percent viability of the cells with increasing concentration of the CD36 inhibitor (HepG2 cells): increasing the concentration of the CD36 inhibitor correlates with increasing percent viability
